The subject of data set [1] is various tissues of normal mice. The experiment in a line: Propidium iodide delivery to a variety of target cells by injection or topical administration. In kind it is in vivo, mouse. How it is done:
Propidium iodide delivery to a variety of target cells. […] All biliary and gall bladder arteries, as well as bladder epithelium also stained (FIG. 14B). […] During injection time the common carotid artery was temporary occluded. After injection the blood flow was restored and animals sacrificed 5 min later. […] After three weeks, mice were injected with modified PI. […] Injection was performed using similar 35 G needle into right ureter close to the bladder. […] Clamps were then released and 5 min later animals were sacrificed. The intestine lumen was flushed with 1 ml of ITG and analyzed as described above.

Data set [2] has as its system rapidly dividing hepatocytes. The experiment in a line: Mitosis of hepatocytes after 70% partial hepatectomy and portal vein delivery. It counts as in vivo, ICR mice. Conditions: 2 days after treatment, 0.150 μmol intraportal. How it is done: Delivery of RRH-PI to rapidly dividing cells results in a decrease in the number of cells in mitosis. […] Following the hepatectomy, PI or III (0.150 μmol, 220 μl total injection volume) were delivered to the liver via the portal vein using the mixing chamber. The abdominal cavity was closed in two layers with 4-0 Braunamid suture. After 48 h, the animals were sacrificed, the livers were harvested, formalin fixed, paraffin imbedded, sectioned, and H&E stained. […] Results are reported as the percentage of cells in metaphase (±standard deviation).

In data set [3] the test system is MC38 metastases and hepatic cells. The experiment in a line: Portal vein injection in tumor-bearing mice. It counts as in vivo, mouse. As for the experimental part: For intraportal injections both the portal vein and the celiac artery were clamped to occlude blood flow into the liver. In other experiments, the portal vein and the celiac artery were not clamped, preserving full portal blood flow during the experiment. In all cases, the vena cava was not clamped in order to avoid increased pressure within the liver during the injection procedure. For experiments with occluded blood flow, the blood in the liver was flushed out with 1 ml of ITG delivered through the portal vein (1 min). Then 0.300 μmol of PI or II in 40 μl of DMF was delivered together with 400 μl of ITG via the mixing chamber. Five min after injection the livers were perfused with 3 ml of ITG to flush any drug remaining in the vasculature, and livers were sectioned as above or the hepatocytes were isolated.

The subject of data set [4] is Jurkat cells. The experiment in a line: Flow cytometry of prodrug delivery to Jurkat cells. It counts as cell-based, human. As for the experimental part:
For experiments conducted on Jurkat cells (8.0×10^5 cells/ml in media), the cells were isolated by centrifugation and resuspended in ITG at a density of 4.0×10^6 cells/ml. Exposure to the drug/prodrug was conducted by passing the cells in suspension in ITG (200 μl) through the mixing chamber. After 30 sec the cells were centrifuged and the drug solution was removed (aspirated), the cells were resuspended in complete media (2 ml) and plated in 6-well plates for imaging. Passing the cells through the mixing chamber (no drug/prodrug treatment) had no effect on cell viability when compared to cells plated without passing through the mixing chamber.
Flow cytometry was conducted on a FacsCalibur Flow Cytometer (Becton Dickinson Biosciences). Jurkat cells were isolated and treated with PI and II as previously described. After 4 min the cells were centrifuged and the drug solution was removed (aspirated) and 1 ml complete media was added to the cells. During analysis, PI was added to control cells (1 ml of 8.0×10^5 cells/ml in complete media, 1 drop of 1 mg/ml PI solution, no OS or mixing chamber) to determine normal cell senescence. Data were collected for a total of 10,000 events using Cell Quest™ (Becton Dickinson Biosciences), and analyzed with FlowJo (Tree Star Inc.) for single cell events (approximately 80% of events), and secondly for PI. For Jurkat cells treated with II, forward scatter was analogous to control cells, while side scatter increased approximately two fold. Reported data represents a histogram of PI intensity for single cell events from four independent preparations. Cells were considered PI positive at a value of 100 on the PI intensity axis of the histogram for the cell percentages described.
(In flow cytometry, cells or beads pass a laser one at a time.)

Data set [5] in a line: Analysis of prodrug lability (rate of hydrolysis) of PI derivatives by fluorescent spectroscopy. It counts as physicochemical. Conditions: for Half-life: extrapolated to pure buffer (100 mol % H2O). As for the experimental part:
Analysis of prodrug lability. The prodrugs were tested for their rate of hydrolysis at pH 6.0, 7.2 and 8.5 using fluorescent spectroscopy. Lability studies for C12CON-PI and RRH-PI (rapidly reversible hydrophobic-PI) derivatives were conducted on a Cary Eclipse Fluorescence Spectrophotometer (Varian Inc.).
To solutions of PI and RRH-prodrugs of PI (7.48 μM in DMSO) were added various amounts of buffer (25 μL, 50 μL, and 100 μL of 20 mM Hepes buffer) at different pH. Upon cleavage of the hydrophobic modification and regeneration of PI, the fluorescence of the solution increased (λex=493 nm, λem=647 nm, excitation and emission slit width=5 nm, and emission PMT=600V) and was assayed as a function of time (20 min).
The resulting curves were normalized for intensity and fit to an exponential equation (Origin) to determine kdetermined for each solution. The kdetermined for each compound at appropriate pH were plotted against the mol % of H2O, and the best fit line was solved for kbuffer for 100 mol % H2O. These derived kbuffer values were used to determine the half-life of the prodrug in pure buffer according to the equation t1/2=1n2/k.

Setting [6] is: intestinal intra lumen application, 100 μg.
[7] abbreviates: portal vein and celiac artery clamped (occluded blood flow).
Where [8] appears, read: cells suspended in ITG passed through mixing chamber with drug in DMSO.

Molecules are shown by their SMILES.

For the compound `CC[N+](C)(CC)CCC[n+]1c(-c2ccccc2)c2cc(N)ccc2c2ccc(N)cc21.[I-].[I-]` [PI, Propidium iodide, reference compound], the nuclear staining entry in data set [1] (injection into any vessel or bile duct of normal liver) is listed as “little to no nuclear staining”; in data set [1] (setting [6]), “PI staining was observed in a few intestinal villi cells”. For the same compound, the hepatocytes in metaphase in data set [2] amounted to 7.0%. Also, the “nuclear staining after portal vein injection” value in data set [3] (400 μl into portal vein of liver with MC38 metastases) is “did not result in nuclear staining of any structures”. The “PI labeling after portal vein injection” value in data set [3] (setting [7]) is on record as “a few labeled cells”. The “PI positive cells (signal above 100)” value in data set [4] (PI in aqueous solution, no OS, no mixing chamber (control)) was 0.3±0.1%; in data set [4] (setting [8]) it was 8.4±0.6%.

`CCCCCCCCCCCCNC(=O)CCC(=CCC(=O)O)C(=O)Nc1ccc2c(c1)c(-c1ccccc1)[n+](CCC[N+](C)(CC)CC)c1cc(NC(=O)C(=CCC(=O)O)CCC(=O)NCCCCCCCCCCCC)ccc21.[I-].[I-]` [III, 3,8-bis-[2-(2 carboxyethylidene)-4-(dodecarbamoyl)-1-oxo-butylamine] 5-(3,3-diethyl-3-methylammoniumpropyl) 6-phenyl phenanthridinium diiodide]: the k entry is “(5.05 min^−1)” in data set [5] (pH 7.2) and “(1.97 min^−1)” in data set [5] (pH 8.5). In data set [2], this compound registered a hepatocytes in metaphase of 2.3%.

Turning to `CCCCCCCCCCCCCCCCCC[Si](C)(C)Nc1ccc2c(c1)c(-c1ccccc1)[n+](CCC[N+](C)(CC)CC)c1cc(N[Si](C)(C)CCCCCCCCCCCCCCCCCC)ccc21.[I-].[I-]` [II, 3,8-bis[((dimethyl)octadecylsilazyl)amine] 5-(3,3-diethyl-3-methylammoniumpropyl) 6-phenyl phenanthridinium diiodide], the k result was “(3.96 min^−1)” in data set [5] (pH 7.2) and “(1.80 min^−1)” in data set [5] (pH 8.5). Further, the Half-life in data set [5] (pH 7.2) was 11 s; in data set [5] (pH 7.2, listed as BDMODS-PI (II)) it was 10.5 s; in data set [5] (pH 8.5) it was 23 s; in data set [5] (pH 8.5, listed as BDMODS-PI (II)), 23.1 s. Also, the nuclear staining result in data set [1] (injection into bile duct of normal mouse liver) was “strong nuclear staining of all bile duct epithelial cells”; in data set [1] (injection into emptied bladder) it was “strong staining of bladder transitional epithelium”; in data set [1] (injection into hepatic artery of normal mouse liver), “strong nuclear staining of hepatic artery endothelial and smooth-muscle cells”; in data set [1] (injection into right carotid artery), “strong staining of brain endothelial cells”; in data set [1] (injection into the ureter), “strong staining of ureter transitional epithelium nuclei”; in data set [1] (injection into unclamped portal vein with preserved blood flow), “strong nuclear staining of portal vein cells only”. The nuclear staining result in data set [1] (setting [6]) was “strong labeling of all enterocyte nuclei”; in data set [1] (portal vein clamped during injection) it was “propidium iodide staining was observed in a majority of hepatocytes”. Besides, the “PI labeling after portal vein injection” value in data set [3] (setting [7]) is “prominent labeling of portal structures and adjacent cells, including hepatocytes, but not of the metastases”; in data set [3] (preserved portal blood flow), “all metastases were PI-negative”; in data set [3] (preserved portal blood flow, listed as BDMODS-PI) it was “No labeled cells in MC38 metastases”. In addition, the “PI positive cells (signal above 100)” value in data set [4] (setting [8]) is on record as 99.5±0.1%.

(Values after patent publication US20090074885A1, “Reversible Hydrophobic Modification of Drugs for Improved Delivery to Cells” (Roche Madison Inc., priority 2003, published 2009).)
